Measurements from publication PMC12655529, “Serendipitous Hinge Modulation Hypothetically Reprograms Caerin 1.1-LC Antibacterial Mechanism and Gram-Negative Selectivity” (Pharmaceutics, 2025).
Ends that are not written are not given here.

What was measured:
[1] = test system: Escherichia coli ATCC 8739; format: cell-based; settings: ATCC 8739
Experimental: (§1) The antimicrobial activities of the peptides were evaluated by determining their minimal inhibitory concentration (MIC) and minimal bactericidal concentration (MBC) values following reported protocols [20]. The tested microorganisms included seven Gram-negative bacterial strains (Escherichia coli ATCC 8739, E. coli ATCC-BAA 2340, E. coli NCTC 13846, Klebsiella pneumoniae ATCC 43816, K. pneumoniae ATCC BAA-2342, Pseudomonas aeruginosa ATCC 9027, Acinetobacter baumannii ATCC BAA-747), three Gram-positive bacterial strains (Staphylococcus aureus ATCC 6538, Enterococcus faecalis NCTC 12697, MRSA NCTC 12493, and the fungal strain Candida albicans ATCC 10231. For the assay, each bacterial strain was cultured overnight at 37 °C in 100 mL of medium in a flask. The cultures were then subcultured to reach the logarithmic growth phase and diluted to 5 × 10^5 CFU/mL. Peptide samples were serially diluted two-fold in microplates, with concentrations ranging from 128 μM to 1 μM. The diluted bacterial suspensions were mixed with the peptide solutions and incubated overnight at 37 °C. The MIC values were determined by measuring the absorbance of each well using a Synergy HT plate reader (Agilent, Cheshire, UK). For MBC determination, aliquots from wells showing no visible growth were inoculated onto agar plates to assess bacterial viability. Each experiment was repeated independently three times and conducted in three independent replicates.

E. coli ATCC BAA-2340 = format: cell-based, Escherichia coli
Experimental: as §1

E. coli NCTC 13846 = format: cell-based, Escherichia coli
Experimental: as §1

[2] = test system: Klebsiella pneumoniae ATCC 43816; format: cell-based; settings: ATCC 43816
Experimental: as §1

[3] = test system: K. pneumoniae ATCC BAA-2342; format: cell-based, Klebsiella pneumoniae
[4] = test system: Pseudomonas aeruginosa ATCC 9027; format: cell-based
[5] = test system: Acinetobacter baumannii ATCC BAA-747; format: cell-based; settings: ATCC BAA-747
Experimental: as §1

[6] = test system: Staphylococcus aureus ATCC 6538; format: cell-based; settings: ATCC 6538
[7] = test system: Enterococcus faecalis NCTC 12697; format: cell-based; settings: NCTC 12697
Experimental: as §1

MRSA NCTC 12493 = format: cell-based, Staphylococcus aureus
horse red blood cells = test: Haemolysis assay; format: cell-based; settings: concentration inducing 10% haemolysis of horse erythrocytes; 4% (v/v) in PBS, 2 h, 37 °C, absorbance 570 nm; no haemolysis at maximum testing concentration (128 μM) recorded as 256 μM
Experimental: The peptide cytotoxicity against mammalian erythrocytes was evaluated by haemolysis assay on horse red blood cells (E&O Laboratories Ltd., Falkirk, UK). Fresh horse blood was washed three times with PBS and resuspended to a final concentration of 4% (v/v) in PBS. The diluted blood suspension was then mixed with peptide solutions at varying concentrations and incubated for 2 h at 37 °C. Red blood cell suspensions treated with 0.1% Triton X-100 and PBS were used as controls. The Triton X-100-treated suspension was the positive control (for 100% haemolysis), while the PBS-treated suspension was the blank control. Following incubation, the mixtures were centrifuged at 1000× g for 10 min to separate erythrocytes from the supernatant. The absorbance of the supernatants was detected at 570 nm. The percentage haemolysis was calculated by following the equationPercentage Haemolysis = (AbsSample − AbsBlank)/(AbsPositive − AbsBlank) × 100%

Gram-positive bacteria = test: Geometric mean MIC and therapeutic index, Gram-positive; format: cell-based; settings: geometric mean of MICs

Row | Substance | MBC, E. coli (ATCC 8739) [1] | MIC, E. coli (ATCC 8739) [1] | MBC, E. coli (ATCC BAA-2340) (E. coli ATCC BAA-2340) | MIC, E. coli (ATCC BAA-2340) (E. coli ATCC BAA-2340) | MBC, E. coli (NCTC 13846) (E. coli NCTC 13846) | MIC, E. coli (NCTC 13846) (E. coli NCTC 13846) | MBC, K. pneumoniae (ATCC 43816) [2] | MIC, K. pneumoniae (ATCC 43816) [2] | MBC, K. pneumoniae (ATCC BAA-2342) [3] | MIC, K. pneumoniae (ATCC BAA-2342) [3] | MBC, P. aeruginosa (ATCC 9027) [4] | MIC, P. aeruginosa (ATCC 9027) [4] | MBC, A. baumannii (ATCC BAA-747) [5] | MIC, A. baumannii (ATCC BAA-747) [5] | MBC, S. aureus (ATCC 6538) [6] | MIC, S. aureus (ATCC 6538) [6] | MBC, E. faecalis (NCTC 12697) [7] | MIC, E. faecalis (NCTC 12697) [7] | MBC, MRSA (NCTC 12493) (MRSA NCTC 12493) | MIC, MRSA (NCTC 12493) (MRSA NCTC 12493) | other results
1 | GLLSVLGSLKLIVPRVVPLIAEKL-NH2 [Caerin 1.1-LC PRVVP] | 8 µM | 2 µM | 4 µM | 2 µM | 16 µM | 4 µM | 16 µM | 8 µM | 32 µM | 8 µM | 8/8 µM | 8/8 µM | 32 µM | 32 µM | 16 µM | 8 µM | >128 µM | >128 µM | 8 µM | 4 µM | HC10 (horse red blood cells): 25.8 µM; GM MIC Gram-Positive (Gram-positive bacteria): 5.94 µM
2 | GLLSVLGSLKLIVPKVVPLIAEKL-NH2 [Caerin 1.1-LC PKVVP] | 8 µM | 4 µM | 4 µM | 2 µM | 4 µM | 2 µM | 32 µM | 16 µM | 32 µM | 8 µM | 32 µM | 8 µM | 32 µM | 32 µM | 32 µM | 16 µM | >128 µM | >128 µM | 8 µM | 8 µM | HC10 (horse red blood cells): 25.8 µM; GM MIC Gram-Positive (Gram-positive bacteria): 12.14 µM
3 | GLLSVLGSLKLIVPHIIPLIAEKL-NH2 [Caerin 1.1-LC PHIIP] | 8 µM | 4 µM | 8 µM | 4 µM | 8 µM | 4 µM | 16 µM | 16 µM | 16 µM | 8 µM | 64 µM | 32 µM | 8 µM | 8 µM | 8 µM | 4 µM | >128 µM | >128 µM | 4 µM | 4 µM | HC10 (horse red blood cells): 2.4 µM; GM MIC Gram-Positive (Gram-positive bacteria): 8 µM
